Source: patent US7326699B2, “4-Amino-5-phenyl-7-cyclobutyl-pyrrolo(2,3-d)pyrimidine derivatives” (Novartis AG, priority 2001, dated 2008)
pIC50: −log10 of the molar value.

The molecules below were run against T1, human IGF-IR (Homo sapiens, UniProt P08069) (assay: cellular "Capture ELISA": IGF-I induced IGF-IR autophosphorylation). Details: NIH-3T3 mouse fibroblasts transfected with human IGF-IR cDNA, 90 min compound, 10 ng/ml IGF-I for 10 min.
T1 construct: complete human IGF-IR cDNA: GenBank Acc; No. NM_000875; expressed in transfected cells; host or cells: NIH-3T3 mouse fibroblasts
Assay type: cell-based
Procedure: In this assay the activity of the compounds of the invention against Insulin-like growth factor I (IGF-I) induced autophosphorylation of the IGF-IGF-IR is determined. The assay is conducted as follows:
The cells which overexpress human IGF-IGF-IR are cultured in Dulbecco's minimal essential (DMEM) medium, containing 10% Fetal Calf Serum (FCS). […] On day 3 the medium is discarded and the cells are incubated for 24 h in minimal medium (DMEM, containing 0.5% FCS). […] The cells are incubated for 90 min in the presence of a compound of formula I. Thereafter the cells are stimulated with 50 μl IGF-I (final concentration of IGF-I in the well=10 ng/ml; IGF-I is obtained from Sigma; Product Code: I3769) and incubated for 10 min at 37° C.
The medium is discarded and the cells are washed twice with PBS/O (=Phosphate-Buffered Saline without CaCl2) and lysed for 15 min on ice with 50 μl/well RIPA-buffer [50 mM Tris.HCl, pH=7.2, 120 mM NaCl, 1 mM EDTA, 6 mM EGTA, 1% NP-40, 20 mM NaF, 1 mM benzamidine, 15 mM sodium pyrophosphate, 1 mM Phenyl methyl sulphonyl fluoride (PMSF) and 0.5 mM Na3VO4] and shaken for 10 min using a 96-well plate shaker (=cellular extracts).
The plates are washed twice with 0.05% (v/v) Tween-20 in Phosphate-Buffered Saline (PBS) and once with nanopure H2O. […] After blocking, the plates are washed once with nanopure H2O.
After incubating the extracts and the secondary antibody for 2 h at 4° C., the extracts are discarded, the plates are washed twice with 0.05% (v/v) Tween-20 in PBS and once with nanopure water.
90 μl/well AP substrate (CDP-Star; obtained from Tropix; Cat. No.: MS100RY) are then added and the plates are incubated for 45 min at RT in the dark, followed by measuring AP activity in a Packard Top Count Microplate Scintillation Counter. The IC50 values for the compounds of formula I are calculated via linear regression analysis using the GraphPad In-stat program (GraphPad Software, USA).
Test for activity against IGF-I induced IGF-IR autophosphorylation using the cellular “Capture ELISA” test
The cellular “Capture ELISA” test is carried out as described above.

T1 sequence (P08069 31-1367): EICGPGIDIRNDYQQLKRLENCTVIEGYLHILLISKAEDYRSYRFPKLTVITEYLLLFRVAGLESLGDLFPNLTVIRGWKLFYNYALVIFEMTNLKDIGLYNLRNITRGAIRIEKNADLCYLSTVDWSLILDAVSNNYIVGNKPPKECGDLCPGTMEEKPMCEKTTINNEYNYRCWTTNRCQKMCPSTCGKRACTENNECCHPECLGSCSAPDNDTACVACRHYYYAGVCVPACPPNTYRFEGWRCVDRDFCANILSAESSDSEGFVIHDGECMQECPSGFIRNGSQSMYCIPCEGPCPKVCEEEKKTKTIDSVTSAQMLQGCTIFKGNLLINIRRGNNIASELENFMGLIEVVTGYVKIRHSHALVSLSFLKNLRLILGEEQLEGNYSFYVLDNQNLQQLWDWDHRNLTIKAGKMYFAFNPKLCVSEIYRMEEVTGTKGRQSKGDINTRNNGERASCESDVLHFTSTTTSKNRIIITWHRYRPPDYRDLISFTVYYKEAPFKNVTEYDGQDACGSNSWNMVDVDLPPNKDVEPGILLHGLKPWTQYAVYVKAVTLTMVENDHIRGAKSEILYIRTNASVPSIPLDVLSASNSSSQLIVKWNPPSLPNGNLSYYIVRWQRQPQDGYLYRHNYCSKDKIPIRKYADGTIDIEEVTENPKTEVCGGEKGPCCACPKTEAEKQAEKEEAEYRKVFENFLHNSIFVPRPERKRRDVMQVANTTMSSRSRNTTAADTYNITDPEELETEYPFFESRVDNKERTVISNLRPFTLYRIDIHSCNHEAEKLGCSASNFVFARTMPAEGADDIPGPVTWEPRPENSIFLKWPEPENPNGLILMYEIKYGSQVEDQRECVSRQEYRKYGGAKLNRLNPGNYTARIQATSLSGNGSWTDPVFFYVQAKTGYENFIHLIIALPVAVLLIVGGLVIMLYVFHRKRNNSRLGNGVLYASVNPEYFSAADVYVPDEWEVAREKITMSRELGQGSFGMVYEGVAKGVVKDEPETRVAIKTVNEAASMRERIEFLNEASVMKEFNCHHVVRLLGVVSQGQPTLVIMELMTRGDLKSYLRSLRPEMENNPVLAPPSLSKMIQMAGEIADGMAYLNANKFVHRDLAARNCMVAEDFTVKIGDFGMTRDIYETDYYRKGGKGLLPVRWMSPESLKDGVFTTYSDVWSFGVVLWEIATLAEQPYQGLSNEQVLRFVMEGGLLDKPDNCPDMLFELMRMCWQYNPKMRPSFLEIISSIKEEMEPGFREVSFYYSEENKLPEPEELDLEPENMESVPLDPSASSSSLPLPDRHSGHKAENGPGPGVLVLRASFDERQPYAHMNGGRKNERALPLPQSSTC

Compound | pIC50
CN(C)CCOC(=O)NC[C@H]1C[C@H](n2cc(-c3cccc(OCc4ccccc4)c3)c3c(N)ncnc32)C1 [Example 98, trans-{3-[4-Amino-5-(3-benzyloxy-phenyl)-pyrrolo[2,3-d]pyrimidin-7-yl]-cyclobutylmethyl}-carbamic acid 2-dimethylamino-ethyl ester] | 7.40
CCCNC(=O)NC[C@H]1C[C@H](n2cc(-c3cccc(OCc4ccccc4)c3)c3c(N)ncnc32)C1 [Example 28, trans-1-{3-[4-Amino-5-(3-benzyloxy-phenyl)-pyrrolo[2,3-d]pyrimidin-7-yl]-cyclobutylmethyl}-3-propyl-urea] | 7.30
CCN(CC)CCOC(=O)NC[C@H]1C[C@H](n2cc(-c3cccc(OCc4ccccc4)c3)c3c(N)ncnc32)C1 [Example 95, trans-{3-[4-amino-5-(3-benzyloxy-phenyl)pyrrolo[2,3-d]pyrimidin-7-yl]-cyclobutylmethyl}-carbamic acid 2-diethylamino-ethyl ester] | 7.10
Nc1ncnc2c1c(-c1cccc(OCc3ccccc3)c1)cn2[C@H]1C[C@H](CNC(=O)OCCN2CCOCC2)C1 [Example 96, trans-{3-[4-Amino-5-(3-benzyloxy-phenyl)-pyrrolo[2,3-d]pyrimidin-7-yl]-cyclobutylmethyl}-carbamic acid 2-morpholin-4-yl-ethyl ester] | 7.30
Cc1c(-c2cccc(OCc3ccccc3)c2)c2c(N)ncnc2n1[C@H]1C[C@@H](CN2CCN(C)CC2)C1 [Example 117, cis-5-(3-Benzyloxy-phenyl)-6-methyl-7-[3-(4-methyl-piperazin-1-ylmethyl)-cyclobutyl]-7H-pyrrolo[2,3-d]pyrimidin-4-ylamine] | 6.89
Nc1ncnc2c1c(-c1cccc(OCc3ccccc3)c1)cn2[C@H]1C[C@@H](CN2CCC(O)CC2)C1 [Example 77, cis-1-{3-[4-Amino-5-(3-benzyloxy-phenyl)-pyrrolo[2,3-d]pyrimidin-7-yl]-cyclobutylmethyl}-piperidin-4-ol] | 7.30
CCNC(=O)NC[C@H]1C[C@H](n2cc(-c3cccc(OCc4ccccc4)c3)c3c(N)ncnc32)C1 [Example 26, trans-1-{3-[4-amino-5-(3-benzyloxy-phenyl)-pyrrolo[2,3-d]pyrimidin-7-yl]-cyclobutylmethyl}-3-ethyl-urea] | 7.26
Cc1c(-c2cccc(OCc3ccccc3)c2)c2c(N)ncnc2n1[C@H]1C[C@H](CN2CCC(O)CC2)C1 [Example 109, trans-1-{3-[4-Amino-5-(3-benzyloxy-phenyl)-6-methyl-pyrrolo[2,3-d]pyrimidin-7-yl]-cyclobutylmethyl}-piperidin-4-ol] | 6.82
COCCOC(=O)NC[C@H]1C[C@H](n2cc(-c3cccc(OCc4ccccc4)c3)c3c(N)ncnc32)C1 [Example 24, trans-{3-[4-Amino-5-(3-benzyloxy-phenyl)-pyrrolo[2,3-d]pyrimidin-7-yl]-cyclobutylmethyl}-carbamic acid 2-methoxy-ethyl ester] | 7.02
NC(=O)[C@@H]1CCCN1C[C@H]1C[C@H](n2cc(-c3cccc(OCc4ccccc4)c3)c3c(N)ncnc32)C1 [Example 75, trans-(S)1-{3-[4-Amino-5-(3-benzyloxy-phenyl)-pyrrolo[2,3-d]pyrimidin-7-yl]-cyclobutylmethyl}-pyrrolidine-2-carboxylic acid amide] | 7.30
Nc1ncnc2c1c(-c1cccc(OCc3ccccc3)c1)cn2[C@H]1C[C@H](CNC(=O)N2CCCCC2)C1 [Example 90, trans-Piperidine-1-carboxylic acid {3-[4-amino-5-(3-benzyloxy-phenyl)-pyrrolo[2,3-d]pyrimidin-7-yl]-cyclobutylmethyl}-amide] | 7.05
CC(C)NC(=O)NC[C@H]1C[C@@H](n2cc(-c3cccc(OCc4ccccc4)c3)c3c(N)ncnc32)C1 [Example 31, cis-1-{3-[4-Amino-5-(3-benzyloxy-phenyl)-pyrrolo[2,3-d]pyrimidin-7-yl]-cyclobutylmethyl}-3-isopropyl-urea] | 7.52
NC(=O)[C@H]1CCCN1C[C@H]1C[C@@H](n2cc(-c3cccc(OCc4ccccc4)c3)c3c(N)ncnc32)C1 [Example 83, cis-(R)-1-{3-[4-Amino-5-(3-benzyloxy-phenyl)-pyrrolo[2,3-d]pyrimidin-7-yl]-cyclobutylmethyl}-pyrrolidine-2-carboxylic acid amide] | 7.28
Cc1c(-c2cccc(OCc3ccccc3)c2)c2c(N)ncnc2n1[C@H]1C[C@H](CN2CCC2)C1 [Example 110, trans-7-(3-Azetidin-1-ylmethyl-cyclobutyl)-5-(3-benzyloxy-phenyl)-6-methyl-7-H-pyrrolo[2,3-d]pyrimidin-4-ylamine] | 6.85
Nc1ncnc2c1c(-c1cccc(OCc3ccccc3)c1)cn2[C@H]1C[C@@H](CNC(=O)CN2CCCCC2)C1 [Example 57, cis-N-{3-[4-Amino-5-(3-benzyloxy-phenyl)-pyrrolo[2,3-d]pyrimidin-7-yl]-cyclobutylmethyl}-2-piperidin-1-yl-acetamide] | 7.74
Cc1c(-c2cccc(OCc3ccccc3)c2)c2c(N)ncnc2n1[C@H]1C[C@H](CN2CCC[C@@H]2CO)C1 [Example 112, trans-((R)-1-{3-[4-Amino-5-(3-benzyloxy-phenyl)-6-methyl-pyrrolo[2,3-d]pyrimidin-7-yl]-cyclobutylmethyl}-pyrrolidin-2-yl)-methanol] | 7.05
CCNC(=O)NC[C@H]1C[C@@H](n2cc(-c3cccc(OCc4ccccc4)c3)c3c(N)ncnc32)C1 [Example 27, cis-{3-[4-Amino-5-(3-benzyloxy-phenyl)pyrrolo[2,3-d]pyrimidin-7-yl]-cyclobutylmethyl}-3-ethyl-urea] | 7.30
Nc1ncnc2c1c(-c1cccc(OCc3ccccc3)c1)cn2[C@H]1C[C@@H](CN2CCSCC2)C1 [Example 81, cis-5-(3-Benzyloxy-phenyl)-7-(3-thiomorpholin-4-ylmethyl-cyclobutyl)-7H-pyrrolo[2,3-d]pyrimidin-4-ylamine] | 7.10

The remaining lines, values ahead:

pIC50 | Compound
7.15 | CNC[C@H]1C[C@H](n2cc(-c3cccc(OCc4ccccc4)c3)c3c(N)ncnc32)C1 [Example 10, trans-5-(3-Benzyloxy-phenyl)-7-(3-methylaminomethyl-cyclobutyl)-7H-pyrrolo[2,3-d]pyrimidin-4-ylamine]
7.10 | COC(=O)NC[C@H]1C[C@H](n2cc(-c3cccc(OCc4ccccc4)c3)c3c(N)ncnc32)C1 [Example 22, trans-{3-[4-amino-5-(3-benzyloxy-phenyl)-pyrrolo[2,3-d]pyrimidin-7-yl]-cyclobutylmethyl}-carbamic acid methyl ester]
7.24 | CNC(=O)NC[C@H]1C[C@@H](n2cc(-c3cccc(OCc4ccccc4)c3)c3c(N)ncnc32)C1 [Example 88, cis-1-{3-[4-Amino-5-(3-benzyloxy-phenyl)-pyrrolo[2,3-d]pyrimidin-7-yl]-cyclobutylmethyl}-3-methyl-urea]
7.40 | NC(=O)NC[C@H]1C[C@@H](n2cc(-c3cccc(OCc4ccccc4)c3)c3c(N)ncnc32)C1 [Example 49, cis-{3-[4-Amino-5-(3-benzyloxy-phenyl)-pyrrolo[2,3-d]pyrimidin-7-yl]-cyclobutylmethyl}-urea]
7.52 | CS(=O)(=O)NC[C@H]1C[C@@H](n2cc(-c3cccc(OCc4ccccc4)c3)c3c(N)ncnc32)C1 [Example 14, cis-N-{3-[4-Amino-5-(3-benzyloxy-phenyl)-pyrrolo[2,3-d]pyrimidin-7-yl]-cyclobutylmethyl}-methanesulfonamide]
7.51 | COC(=O)NC[C@H]1C[C@@H](n2cc(-c3cccc(OCc4ccccc4)c3)c3c(N)ncnc32)C1 [Example 23, cis-{3-[4-Amino-5-(3-benzyloxy-phenyl)-pyrrolo[2,3-d]pyrimidin-7-yl]-cyclobutylmethyl}-carbamic acid methyl ester]
7.52 | NC[C@H]1C[C@H](n2cc(-c3cccc(OCc4ccccc4)c3)c3c(N)ncnc32)C1 [Example 2, trans-7-(3-aminomethyl-cyclobutyl)-5-(3-benzyloxy-phenyl)-7H-pyrrolo[2,3-d]pyrimidin-4-ylamine]
7.21 | NC[C@H]1C[C@@H](n2cc(-c3cccc(OCc4ccccc4)c3)c3c(N)ncnc32)C1 [Example 1, cis-7-(3-aminomethyl-cyclobutyl)-5-(3-benzyloxy-phenyl)-7H-pyrrolo[2,3-d]pyrimidin-4-ylamine]
7.38 | CNC[C@H]1C[C@@H](n2cc(-c3cccc(OCc4ccccc4)c3)c3c(N)ncnc32)C1 [Example 9, cis-5-(3-Benzyloxy-phenyl)-7-(3-methylaminomethyl-cyclobutyl)-7H-pyrrolo[2,3-d]pyrimidin-4-ylamine]
